Laboratory results from US12281122B1, “PI3K inhibitors” (Cogent Biosciences, Inc., priority 2023, dated 2025).

Tests used:
[1] = system: T47D (PI3Kα-H1047R) cell line; test: HTRF phospho-AKT(S473) cell assay in T47D cells; format: cell-based, human; settings: Homo sapiens, 2 hours compound incubation
In short: (§1)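 Cells plated overnight (T47D in RPMI/10% FBS/0.2 units/mL insulin; SKBR3 in McCoy's 5A/10% FBS), then given 12-point 1:3 compound series (top 5 μM T47D, 10 μM SKBR3; ≤0.5% DMSO) for 2 h at 37° C. SKBR3 stimulated with 70 ng/ml PDGF-BB for final 15 min. Lysate pAKT(S473) by HTRF; IC50 calculated.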

[2] = system: SKBR3 (PI3Kα-Wild Type) cell line; test: HTRF phospho-AKT(S473) cell assay in SKBR3 cells; format: cell-based, human; settings: Homo sapiens, SK-BR-3, 2 hours compound incubation, PDGF-BB stimulated
In short: as §1

[3] = T47D (PI3Kα-H1047R) cells, HTRF phospho-AKT(S473)
[4] = SKBR3 (PI3Kα-Wild Type) cells, HTRF phospho-AKT(S473)
[5] = HTRF phospho-AKT(S473), T47D (PI3Kα-H1047R) cells
[6] = HTRF phospho-AKT(S473), SKBR3 (PI3Kα-Wild Type) cells

Row | SMILES | IC50 [1, 3] [µM] | IC50 [2, 4] [µM] | IC50 [1, 5] [µM] | IC50 [2, 6] [µM] | other results
1 | Cc1cc([C@@H](C)Nc2ccc(Cl)nc2C(=O)NS(C)(=O)=O)c2nc(N3CC[C@H](Oc4cncnc4)C3)n(C)c(=O)c2c1 [Compound 354, 6-chloro-3-(((R)-1-(3,6-dimethyl-4-oxo-2-((S)-3-(pyrimidin-5-yloxy)pyrrolidin-1-yl)-3,4-dihydroquinazolin-8-yl)ethyl)amino)-N-(methylsulfonyl) picolinamide] | < 0.25 | 1 to 5 | – | – | –
2 | CO[C@H]1CCC2(CCN(c3nc4c([C@@H](C)Nc5ccc(Cl)nc5C(=O)NS(C)(=O)=O)cc(C)cc4c(=O)n3C)CC2)OC1 (mixture of isomers) [Compound 721, 6-chloro-3-(((R)-1-(2-((RS)-3-methoxy-1-oxa-9-azaspiro[5.5]undecan-9-yl)-3,6-dimethyl-4-oxo-3,4-dihydroquinazolin-8-yl)ethyl)amino)-N-(methylsulfonyl) picolinamide] | – | – | 0.25 to 0.5 | ≥ 5 | –
3 | Cc1cc([C@@H](C)Nc2ccc(Cl)nc2C(=O)NS(C)(=O)=O)c2nc(N3CCC(c4n[nH]cc4Cl)CC3)n(C)c(=O)c2c1 [Compound 717, (R)-6-chloro-3-((1-(2-(4-(4-chloro-1H-pyrazol-3-yl)piperidin-1-yl)-3,6-dimethyl-4-oxo-3,4-dihydroquinazolin-8-yl)ethyl)amino)-N-(methylsulfonyl) picolinamide] | – | – | 0.25 to 0.5 | ≥ 5 | –
4 | Cc1cc([C@@H](C)Nc2ccc(Cl)nc2C(=O)NS(C)(=O)=O)c2nc(N3CCC(c4nc(C)no4)CC3)n(C)c(=O)c2c1 [Compound 595, (R)-6-chloro-3-((1-(3,6-dimethyl-2-(4-(3-methyl-1,2,4-oxadiazol-5-yl)piperidin-1-yl)-4-oxo-3,4-dihydroquinazolin-8-yl)ethyl)amino)-N-(methylsulfonyl) picolinamide] | – | – | < 0.25 | 1 to 5 | –
5 | Cc1cc([C@@H](C)Nc2ccc(Cl)nc2C(=O)NS(C)(=O)=O)c2nc(N3CCC4(CCc5c(cnn5C)C4)CC3)n(C)c(=O)c2c1 [Compound 344, (R)-6-chloro-3-((1-(3,6-dimethyl-2-(1-methyl-1,4,6,7-tetrahydrospiro[indazole-5,4′-piperidin]-1′-yl)-4-oxo-3,4-dihydroquinazolin-8-yl)ethyl)amino)-N-(methylsulfonyl) picolinamide] | < 0.25 | ≥ 5 | – | – | –
6 | Cc1cc([C@@H](C)Nc2ccc(Cl)nc2C(=O)NS(C)(=O)=O)c2nc(N3CC[C@@H](Oc4cncnc4)C3)n(C)c(=O)c2c1 [Compound 707, 6-chloro-3-(((R)-1-(3,6-dimethyl-4-oxo-2-((R)-3-(pyrimidin-5-yloxy)pyrrolidin-1-yl)-3,4-dihydroquinazolin-8-yl)ethyl)amino)-N-(methylsulfonyl) picolinamide] | – | – | 0.25 to 0.5 | 1 to 5 | –
7 | Cc1cc([C@@H](C)Nc2ccc(Cl)nc2C(=O)NS(C)(=O)=O)c2nc(N3C[C@@H]4CC(c5ccn(C)n5)C[C@H]4C3)n(C)c(=O)c2c1 (single isomer, unassigned) [Compound 426, 6-chloro-3-(((R)-1-(3,6-dimethyl-2-((3aR*,6aR*)-5-(1-methyl-1H-pyrazol-3-yl)hexahydrocyclopenta [c]pyrrol-2(1H)-yl)-4-oxo-3,4-dihydroquinazolin-8-yl)ethyl)amino)-N-(methylsulfonyl) picolinamide] | 0.25 to 0.5 | ≥ 5 | – | – | –
8 | Cc1cc([C@@H](C)Nc2ccc(Cl)nc2C(=O)NS(C)(=O)=O)c2nc(N3CCC4(CCN(c5ccn(C)n5)CC4)C3)n(C)c(=O)c2c1 [Compound 358, (R)-6-chloro-3-((1-(3,6-dimethyl-2-(8-(1-methyl-1H-pyrazol-3-yl)-2,8-diazaspiro[4.5]decan-2-yl)-4-oxo-3,4-dihydroquinazolin-8-yl)ethyl)amino)-N-(methylsulfonyl) picolinamide] | < 0.25 | 1 to 5 | – | – | –
9 | COc1nc2cc(-c3nc4c([C@@H](C)Nc5ccc(Cl)nc5C(=O)NS(C)(=O)=O)cc(C)cc4c(=O)n3C)ccc2n1C [Compound 849, (R)-6-chloro-3-((1-(2-(2-methoxy-1-methyl-1H-benzo[d]imidazol-5-yl)-3,6-dimethyl-4-oxo-3,4-dihydroquinazolin-8-yl)ethyl)amino)-N-(methylsulfonyl) picolinamide] | – | – | – | – | IC50 ([1]; T47D (PI3Kα-H1047R) cell line, phospho-AKT(S473) HTRF): 0.25 to 0.5 µM; IC50 ([2]; SKBR3 (PI3Kα-Wild Type) cell line, phospho-AKT(S473) HTRF): ≥ 5 µM
10 | Cc1cc([C@@H](C)Nc2ccc(Cl)nc2C(=O)NS(C)(=O)=O)c2nc(C3CCN(c4ccn(C)n4)CC3)n(C)c(=O)c2c1 [Compound 223, (R)-6-chloro-3-((1-(3,6-dimethyl-2-(1-(1-methyl-1H-pyrazol-3-yl)piperidin-4-yl)-4-oxo-3,4-dihydroquinazolin-8-yl)ethyl)amino)-N-(methylsulfonyl) picolinamide] | < 0.25 | 1 to 5 | – | – | –
11 | Cc1cc([C@@H](C)Nc2ccc(Cl)nc2C(=O)NS(C)(=O)=O)c2nc(N3CCC[C@H](C#N)C3)n(C)c(=O)c2c1 [Compound 209, 6-chloro-3-(((R)-1-(2-((S)-3-cyanopiperidin-1-yl)-3,6-dimethyl-4-oxo-3,4-dihydroquinazolin-8-yl)ethyl)amino)-N-(methylsulfonyl) picolinamide] | < 0.25 | 1 to 5 | – | – | –
12 | Cc1cc([C@@H](C)Nc2ccc(Cl)nc2C(=O)NS(C)(=O)=O)c2nc(N3CCC(n4nccc4N(C)C)CC3)n(C)c(=O)c2c1 [Compound 309, (R)-6-chloro-3-((1-(2-(4-(5-(dimethylamino)-1H-pyrazol-1-yl)piperidin-1-yl)-3,6-dimethyl-4-oxo-3,4-dihydroquinazolin-8-yl)ethyl)amino)-N-(methylsulfonyl) picolinamide] | 0.25 to 0.5 | ≥ 5 | – | – | –
13 | Cc1cc([C@@H](C)Nc2ccc(Cl)nc2C(=O)NS(C)(=O)=O)c2nc(N3CCC(n4cc(F)c(C)n4)CC3)n(C)c(=O)c2c1 [Compound 492, (R)-6-chloro-3-((1-(2-(4-(4-fluoro-3-methyl-1H-pyrazol-1-yl)piperidin-1-yl)-3,6-dimethyl-4-oxo-3,4-dihydroquinazolin-8-yl)ethyl)amino)-N-(methylsulfonyl) picolinamide] | – | – | 0.25 to 0.5 | 1 to 5 | –

The next lines start with results.

Row | IC50 [1, 3] [µM] | IC50 [2, 4] [µM] | IC50 [1, 5] [µM] | IC50 [2, 6] [µM] | SMILES | other results
14 | < 0.25 | 1 to 5 | – | – | Cc1cc([C@@H](C)Nc2ccc(Cl)nc2C(=O)NS(C)(=O)=O)c2nc(N3CCC(c4cc(C)n(C)n4)CC3)n(C)c(=O)c2c1 [Compound 287, (R)-6-chloro-3-((1-(2-(4-(1,5-dimethyl-1H-pyrazol-3-yl)piperidin-1-yl)-3,6-dimethyl-4-oxo-3,4-dihydroquinazolin-8-yl)ethyl)amino)-N-(methylsulfonyl) picolinamide] | –
15 | < 0.25 | 1 to 5 | – | – | Cc1cc([C@@H](C)Nc2ccc(Cl)nc2C(=O)NS(C)(=O)=O)c2nc(N3C[C@H]4C[C@@H]3CN4c3ccn(C)n3)n(C)c(=O)c2c1 [Compound 229, 6-chloro-3-(((R)-1-(3,6-dimethyl-2-((1R,4R)-5-(1-methyl-1H-pyrazol-3-yl)-2,5-diazabicyclo[2.2.1]heptan-2-yl)-4-oxo-3,4-dihydroquinazolin-8-yl)ethyl)amino)-N-(methylsulfonyl) picolinamide] | –
16 | – | – | < 0.25 | 1 to 5 | Cc1cc([C@@H](C)Nc2ccc(Cl)nc2C(=O)NS(C)(=O)=O)c2nc(N3C[C@@H]4[C@H](C3)[C@H]4c3nn(C)nc3C)n(C)c(=O)c2c1 [Compound 497, 6-chloro-3-(((R)-1-(2-((1R,5S,6R)-6-(2,5-dimethyl-2H-1,2,3-triazol-4-yl)-3-azabicyclo[3.1.0]hexan-3-yl)-3,6-dimethyl-4-oxo-3,4-dihydroquinazolin-8-yl)ethyl)amino)-N-(methylsulfonyl) picolinamide] | –
17 | – | – | 0.25 to 0.5 | ≥ 5 | Cc1cnc(N2C[C@@H]3C[C@H]2CN3c2nc3c([C@@H](C)Nc4ccc(Cl)nc4C(=O)NS(C)(=O)=O)cc(C)cc3c(=O)n2C)nc1 [Compound 564, 6-chloro-3-(((R)-1-(3,6-dimethyl-2-((1S,4S)-5-(5-methylpyrimidin-2-yl)-2,5-diazabicyclo[2.2.1]heptan-2-yl)-4-oxo-3,4-dihydroquinazolin-8-yl)ethyl)amino)-N-(methylsulfonyl) picolinamide] | –
18 | < 0.25 | 1 to 5 | – | – | Cc1cc([C@@H](C)Nc2ccc(Cl)nc2C(=O)NS(C)(=O)=O)c2nc(N3C[C@@H]4[C@H](C3)[C@H]4c3cnn(C)n3)n(C)c(=O)c2c1 [Compound 409, 6-chloro-3-(((R)-1-(3,6-dimethyl-2-((1R,5S,6R)-6-(2-methyl-2H-1,2,3-triazol-4-yl)-3-azabicyclo[3.1.0]hexan-3-yl)-4-oxo-3,4-dihydroquinazolin-8-yl)ethyl)amino)-N-(methylsulfonyl) picolinamide] | –
19 | – | – | 0.5 to 1 | ≥ 5 | Cc1cc([C@@H](C)Nc2ccc(Cl)nc2C(=O)NS(C)(=O)=O)c2nc(N3CCC[C@@H](c4cnc(C)nc4)C3)n(C)c(=O)c2c1 (relative stereo) [Compound 645, 6-chloro-3-(((R)-1-(3,6-dimethyl-2-((R*)-3-(2-methylpyrimidin-5-yl)piperidin-1-yl)-4-oxo-3,4-dihydroquinazolin-8-yl)ethyl)amino)-N-(methylsulfonyl) picolinamide] | –
20 | – | – | 0.25 to 0.5 | ≥ 5 | COc1nccnc1C1CCN(c2nc3c([C@@H](C)Nc4ccc(Cl)nc4C(=O)NS(C)(=O)=O)cc(C)cc3c(=O)n2C)CC1 [Compound 563, (R)-6-chloro-3-((1-(2-(4-(3-methoxypyrazin-2-yl)piperidin-1-yl)-3,6-dimethyl-4-oxo-3,4-dihydroquinazolin-8-yl)ethyl)amino)-N-(methylsulfonyl) picolinamide] | –
